Results published in patent publication US4399274A, “Isolation of non-ionic lipophilic materials on macroreticular polymeric absorbents” (priority 1981, dated 1983).

Experiment: Partition of avermectins between aqueous acetone and Duolite ES-863 resin (HPLC of supernatant before and after equilibration)
[1] = 21.4% acetone (vol), 4 ml supernatant, 1 g ES-863 resin, equilibrated for an hour
[2] = 23.1% acetone (vol), 4 ml supernatant, 1 g ES-863 resin, equilibrated for an hour
[3] = 25.0% acetone (vol), 4 ml supernatant, 1 g ES-863 resin, equilibrated for an hour
[4] = 27.3% acetone (vol), 4 ml supernatant, 1 g ES-863 resin, equilibrated for an hour
[5] = 37.5% acetone (vol), 4 ml supernatant, 1 g ES-863 resin, equilibrated for an hour
[6] = 42.9% acetone (vol), 4 ml supernatant, 1 g ES-863 resin, equilibrated for an hour
[7] = 50.0% acetone (vol), 4 ml supernatant, 1 g ES-863 resin, equilibrated for an hour
[8] = 60.0% acetone (vol), 4 ml supernatant, 1 g ES-863 resin, equilibrated for an hour
[9] = 68.0% acetone, ES-863 resin, similar procedures
[10] = 73.3% acetone, ES-863 resin, similar procedures
[11] = 77.1% acetone, ES-863 resin, similar procedures
[12] = 80.0% acetone, ES-863 resin, similar procedures
[13] = 82.2% acetone, ES-863 resin, similar procedures

Description: After standing overnight they were centrifuged and 4 ml of each supernatant was transferred to tubes containing 1 g each of purified ES-863 resin. An aliquot was also taken for HPLC assay.
The samples containing the resin were equilibrated for an hour, then centrifuged. The supernatants were assayed by HPLC. A comparison of the assays before and after equilibration represent the partition between the solvent and the adsorbent.

Structure (SMILES)	% Remaining in Solution [1]	% Remaining in Solution [2]	% Remaining in Solution [3]	% Remaining in Solution [4]	% Remaining in Solution [5]	% Remaining in Solution [6]	% Remaining in Solution [7]	% Remaining in Solution [8]	% Remaining in Solution [9]	% Remaining in Solution [10]	% Remaining in Solution [11]	% Remaining in Solution [12]	% Remaining in Solution [13]
CCC(C)C1OC2(C=CC1C)CC1CC(CC=C(C)C(OC3CC(OC)C(OC4CC(OC)C(O)C(C)O4)C(C)O3)C(C)C=CC=C3COC4C(OC)C(C)=CC(C(=O)O1)C34O)O2 (stereo not drawn) [A1a]	4.40%	6.75%	7.09%	8.42%	3.60%	4.39%	3.03%	2.10%	5.68%	19.7%	36.2%	51.5%	136%
COC1CC(OC2C(C)OC(OC3C(C)=CCC4CC(CC5(C=CC(C)C(C(C)C)O5)O4)OC(=O)C4C=C(C)C(OC)C5OCC(=CC=CC3C)C45O)CC2OC)OC(C)C1O (stereo not drawn) [A1b]	4.56%	4.85%	5.63%	6.42%	3.18%	3.13%	2.42%	1.69%	10.6%	68.1%	111%	145%	79.0%
CCC(C)C1OC2(CC3CC(CC=C(C)C(OC4CC(OC)C(OC5CC(OC)C(O)C(C)O5)C(C)O4)C(C)C=CC=C4COC5C(OC)C(C)=CC(C(=O)O3)C45O)O2)CC(O)C1C (stereo not drawn) [A2a]	5.36%	6.54%	7.86%	6.99%	4.19%	3.76%	2.12%	2.72%	15.2%	42.1%	65.7%	86.7%	110%
COC1CC(OC2C(C)OC(OC3C(C)=CCC4CC(CC5(CC(O)C(C)C(C(C)C)O5)O4)OC(=O)C4C=C(C)C(OC)C5OCC(=CC=CC3C)C45O)CC2OC)OC(C)C1O (stereo not drawn) [A2b]	2.75%	3.89%	5.38%	3.73%	2.70%	1.71%	0.57%	0.3%	26.8%	64.8%	94.4%	117%	128%
COC1CC(OC2C(C)OC(OC3C(C)=CCC4CC(CC5(C=CC(C)C(C(C)C)O5)O4)OC(=O)C4C=C(C)C(O)C5OCC(=CC=CC3C)C45O)CC2OC)OC(C)C1O (stereo not drawn) [B1b]	3.73%	5.03%	6.32%	4.55%	2.59%	2.13%	0.90%	1.53%	20.4%	5.15%	73.8%	94.2%	123%
CCC(C)C1OC2(CC3CC(CC=C(C)C(OC4CC(OC)C(OC5CC(OC)C(O)C(C)O5)C(C)O4)C(C)C=CC=C4COC5C(O)C(C)=CC(C(=O)O3)C45O)O2)CC(O)C1C (stereo not drawn) [B2a]	5.10%	6.09%	7.29%	5.37%	3.21%	2.65%	1.36%	4.95%	27.8%	60.4%	82.1%	99.8%	165%
COC1CC(OC2C(C)OC(OC3C(C)=CCC4CC(CC5(CC(O)C(C)C(C(C)C)O5)O4)OC(=O)C4C=C(C)C(O)C5OCC(=CC=CC3C)C45O)CC2OC)OC(C)C1O (stereo not drawn) [B2b]	< 2%	4.80%	5.08%	2.34%	< 3%	3.89%	4.35%	33.3%	–	–	–	–	135%
